# Source: US20190076431A1, “SRC INHIBITOR TO BLOCK CELL SURFACE GRP78 EXPRESSION” (University of Southern California, priority 2016, published 2019)
# Legend:
# [1] = system: cell surface GRP78; assay: Biotinylated cell surface protein levels after DAS treatment of H929 MM cells (Western blot); type: cell-based; conditions: DAS 1 μM for the indicated time, biotinylated cell surface proteins
# Procedure: Cell Surface Protein Biotinylation and Avidin Pull-down—Following treatment, the cells were washed with cold PBS 3 times. EZ-Link Sulfo-NHS-SS-Biotin (Thermo Scientific, Waltham, Mass.) in PBS at 0.5 mg/ml was added and the cells were gently shaken at 4° C. for 30 min. To stop the biotinylation reaction, the biotin solution was removed, and the cells were rinsed three times with the quenching buffer containing Tris-Cl pH 7.4 in cold PBS. Then cells were rinsed with cold PBS and subjected to either sodium carbonate extraction (see below) or radioimmune precipitation (RIPA) lysis. The RIPA lysis buffer was supplemented with protease and phosphatase inhibitor cocktail (Thermo Scientific). Protein concentrations were determined by Bradford assay (Bio-Rad Lab, Hercules, Calif.). Part of the lysate was saved as whole cell lysate for Western blots to measure the total level of the target proteins. To purify the surface proteins, the remaining lysates were mixed with High Capacity NeutrAvidin Agarose Resin (Thermo Scientific) at room temperature for 1 h, and the resin was washed by RIPA buffer and centrifuged at 3,000× g for 1 min ten times. […]
# Immunoblot Analysis—Protein samples were subjected to 10% or 15% SDS-PAGE and Western blot analysis as previously described (9). […] Protein levels were visualized and quantitated by ChemiDoc™ XRS+ Imager (Bio-Rad Lab) or LI-COR Odyssey (LI-COR Biosciences).
# [2] = system: csGRP78; assay: csGRP78 by flow cytometry in CD138+ MM cells from the bone marrow of a MM patient; type: cell-based, human; conditions: DAS 0.3 μM for 24 hr
# Procedure: FIG. 11. […] (A) Peripheral blood mononuclear cells were isolated from the bone marrow of a MM patient and sorted into CD138+ (blue) and CD138− (non-malignant) cells (orange) and csGRP78 was measured by flow cytometry, with RPMI-8226 MM cell line (red) analyzed in parallel. (B) CD138+ MM cells were treated with DAS (0.3 μM) for 24 hr and assayed for csGRP78 by flow cytometry.
# [3] = Enhancement of proteasome based therapy (summary statement)
smiles,measurement,setting,value
"Cc1nc(Nc2ncc(C(=O)Nc3c(C)cccc3Cl)s2)cc(N2CCN(CCO)CC2)n1 [Dasatinib, dasatinib]",cell surface GRP78 expression,[1],Suppresses Cell Surface GRP78
same,csGRP78 by flow cytometry,[2],Suppresses Cell Surface GRP78
same,effect on proteasome based therapy,[3],enhance proteasome based therapy
